{"source": "paper PMC5841205", "about": "“Pharmacological targeting of apelin impairs glioblastoma growth” (Brain, 2017)", "key": {"[1]": {"test_system": "GSC #1", "test": "Limiting dilution assay, tideglusib", "format": "cell-based, human", "details": "GSC#1, tideglusib 2.5 μM with apelin 1 μM", "description": "(§1) Figure 4 Pharmacological inhibition of APLNR impairs the effects of the endothelial secretome on GSCs by inhibition of GSK3β signalling. (A) Molecular structure and primary sequence of the competitive APLNR antagonist MM54. […] (C) The percentage of calcium flux inhibition following MM54 treatment (0.4–10 μM) in the G-protein coupled receptor hits. (D) Tumoursphere per field of view (fov) in response to MM54 (0–4 μM) treatment in GSC#1 maintained in human brain endothelial cell-conditioned medium (EC-CM) and apelin-supplemented mitogen-free MF media (APLN, 1 μM) for 5 days. *P < 0.05 compared to EC-CM DMSO control, ^#P < 0.05 compared to apelin DMSO control. […] (F) Stem cell frequency in apelin supplemented media in response to MM54 (2 μM) in GSCs #1, #4, #9 and #12. *P < 0.05 compared to the vehicle condition. (G) Flow cytometry analysis of the percentage of ALDH positive and negative GSC #1 in response to 2, 10 or 20 μM of MM54 at Day 5. […] (J) Reverse protein phase array (RPPA) from the TCGA database were analysed in low and high APLNR expressing glioblastoma samples. *P < 0.05; **P < 0.01 compared to the low APLNR condition. […] (N) GSC #1 received sic (control) or GSK3B targeting siRNA (siGSK3B) and tumoursphere per field of view was quantified in MF supplemented with purified apelin (APLN, 1 μM). *P < 0.05 compared to the sic MF condition."}, "[2]": {"test_system": "GSC#1", "test": "Tumoursphere formation, tideglusib", "format": "cell-based, human", "details": "GSC#1, tideglusib 2.5 μM with apelin 1 μM", "description": "(§2) To test the tumoursphere formation, GSCs (100 cells/µl) were plated in triplicate in indicated media as previously described ([Harford-Wright et al., 2016]). Cells were manually dissociated each day and a single cell suspension maintained until Day 5. Tumourspheres were counted in five random fields of view, and the mean from the triplicate of each condition calculated from three independent experiments.\nFigure 4 Pharmacological inhibition of APLNR impairs the effects of the endothelial secretome on GSCs by inhibition of GSK3β signalling. (A) Molecular structure and primary sequence of the competitive APLNR antagonist MM54. […] (C) The percentage of calcium flux inhibition following MM54 treatment (0.4–10 μM) in the G-protein coupled receptor hits. […] (J) Reverse protein phase array (RPPA) from the TCGA database were analysed in low and high APLNR expressing glioblastoma samples. *P < 0.05; **P < 0.01 compared to the low APLNR condition. […] (N) GSC #1 received sic (control) or GSK3B targeting siRNA (siGSK3B) and tumoursphere per field of view was quantified in MF supplemented with purified apelin (APLN, 1 μM). *P < 0.05 compared to the sic MF condition."}, "[3]": {"test_system": "GSCs #1, #4, #9, and #12", "test": "Cell viability (UptiBlue), GSCs", "format": "cell-based, human", "details": "TMZ 100 μM, GSCs #1, #4 and #9, serum-containing medium, 3 days", "description": "(§3) Cell viability in response to MM54 was tested using the UptiBlue reagent (Interchim), a fluorometric/colorimetric growth indicator based on the detection of metabolic activity. Briefly, cells were seeded at a density of 2 × 10^3 per well, UptiBlue added at a concentration of 10% v/v and cells maintained at 37°C 5% CO2 until analysis. Absorbance was measured at Day 5 following treatment at 570 and 600 nm on a FLUOStar OPTIMA (BMG Labtech) plate reader, and the percentage of cell viability calculated according to the manufacturer’s instructions.\n(§4) Figure 5 Pharmacological inhibition of APLNR by MM54 impairs the in vitro expansion of temozolomide-resistant GSCs. (A) Cell viability following treatment with DMSO, MM54 (2, 20 and 100 μM) or temozolomide (TMZ, 50 μM) was measured using UptiBlue in different cell types for 3 days. […] (B and C) Cell viability following treatment with DMSO or TMZ (100 μM) was measured using UptiBlue in GSCs #1, #4, #9, and #12 for 3 days. […] (D) GSC#1 viability was assessed following combined treatment with MM54 (0.2–20 μM) and TMZ (constant ratios TMZ:MM54 2.5:1, 5:1, and 10:1) in NS and human brain endothelial cell-conditioned medium (EC-CM) conditions. (E and F) Tumoursphere per field of view (fov) and ALDH activity were assessed in response to MM54 (0.2–100 μM) or TMZ (10–100 μM) treatment at Day 5. […]"}, "[4]": {"test_system": "LN229 glioblastoma cell line", "test": "Cell viability (UptiBlue), LN229", "format": "cell-based, human", "details": "TMZ", "description": "as §3, §4"}, "[5]": {"test_system": "GSCs (glioblastoma patient-derived cells with stem-like properties)", "test": "Tumoursphere formation, APLNR antagonists and TMZ", "format": "cell-based, human", "details": "GSC#1, TMZ 10–100 μM, Day 5", "description": "as §2\nFigure 4 Pharmacological inhibition of APLNR impairs the effects of the endothelial secretome on GSCs by inhibition of GSK3β signalling. (A) Molecular structure and primary sequence of the competitive APLNR antagonist MM54. […] (J) Reverse protein phase array (RPPA) from the TCGA database were analysed in low and high APLNR expressing glioblastoma samples. *P < 0.05; **P < 0.01 compared to the low APLNR condition. […] (N) GSC #1 received sic (control) or GSK3B targeting siRNA (siGSK3B) and tumoursphere per field of view was quantified in MF supplemented with purified apelin (APLN, 1 μM). *P < 0.05 compared to the sic MF condition.\nFigure 5 Pharmacological inhibition of APLNR by MM54 impairs the in vitro expansion of temozolomide-resistant GSCs. (A) Cell viability following treatment with DMSO, MM54 (2, 20 and 100 μM) or temozolomide (TMZ, 50 μM) was measured using UptiBlue in different cell types for 3 days. […]"}, "[6]": {"test_system": "U87 glioblastoma cell line", "test": "Cell viability (UptiBlue), U87", "format": "cell-based, human", "description": "as §3, §4"}, "[7]": {"test_system": "GSC#1 ALDH activity", "test": "ALDH activity (ALDEFLUOR flow cytometry)", "format": "cell-based, human", "description": "Analysis of aldehyde dehydrogenase (ALDH) activity was performed using the ALDEFLUOR™ assay kit (Stem Cell Technologies). Briefly, cells were incubated with ALDEFLUOR alone or in combination with an ALDH activity inhibitor (DAEB) at 37°C for 45 min. This flow cytometry-based staining allows monitoring ALDH activity in stem, progenitor and cancer precursor cells. The ALDH activity is considered positive in comparison to cells incubated with DEAB reagent.\nas §1, with “5. ALDH activity corresponds to the percentage of cells that contains ALDH activity (positive) or not (negative), normalized to the vehicle condition. *P < 0.05; ***P < 0.001 compared to the vehicle condition.” for “5.”\nas §4"}, "[8]": {"test_system": "GSCs (glioblastoma patient-derived cells with stem-like properties)", "test": "Tumoursphere formation, apelin peptides", "format": "cell-based, human", "details": "for number of tumourspheres: 1 μM apelin peptide in mitogen-free medium (MF), GSCs #1, #9, #12 and #13, vs MF, 5 days", "description": "Glioblastoma patient-derived cells with stem-like properties (GSCs) were isolated as previously described ([Treps et al., 2016]). Briefly, tumours were dissociated using the MACsDissociator (Miltenyi) and each GSC characterized for their self-renewal capabilities, cell surface antigens, expression of stemness markers, their ability to differentiate, and to initiate tumour formation (Supplementary Table 1). GSCs 1–16 were maintained as spheres in NS medium (DMEM-F12, with N2, G5 and B27 supplements, GlutaMAX™ and antibiotics, Life Technologies). To induce differentiation in GSCs, the three supplements were omitted and 10% foetal bovine serum added to the media.\nas §2\n(§5) (C) Confocal analysis of NESTIN (green), SOX2 (red) and nuclei (DAPI, blue) in GSC#1 grown in NS, MF, human brain endothelial cell-conditioned medium (EC-CM) or MF+APLN (1 μM). Scale bars = 20 µm. (D) Linear regression plot of in vitro limiting dilution assay (LDA) for GSC#1 in NS, EC-CM, MF, and MF+APLN (1 μM). Data are representative of n = 2. […] (F) Stem cell frequency in GSCs #1, #2, #4, #9 and #12 in response to MF and APLN conditions. […] (H) EC received non-silencing RNA (sic) or siRNA targeting APLN (siAPLN) and APLN knockdown efficiency assessed by RT-PCR and ELISA. […] (K) FACS analysis of the proliferation marker Ki67 in GSCs #4 and #9 in NS and MF+APLN conditions. All panels are representative of n = 3, unless otherwise specified."}, "[9]": {"test_system": "GSCs #4 and #9", "details": "GSCs #4 and #9, apelin-supplemented MF", "description": "as §5"}, "[10]": {"test_system": "GSC#1", "details": "GSC#1, synthetic apelin 1 μM added to MF", "description": "as §5"}, "[11]": {"test_system": "GSCs (glioblastoma patient-derived cells with stem-like properties)", "description": "as §5"}, "[12]": {"test_system": "endothelial cells", "details": "ref Kleinz and Davenport, 2005; cited from earlier work", "description": "Moreover, apelin has been implicated in physiological and pathological angiogenesis ([Kaelin et al., 2007]). […] In keeping with this, a recent study proposed apelin as a marker for monitoring tumour vessel normalization and response to anti-angiogenic therapy ([Zhang et al., 2016]; [Zuurbier et al., 2017])."}}, "data": [{"compound": "O=c1sn(-c2cccc3ccccc23)c(=O)n1Cc1ccccc1", "note": "[tideglusib]", "values": [{"measurement": "effect on apelin-mediated increase in self-renewal (LDA)", "setting": "[1]", "value": "apelin was less potent at increasing tumourspheres and self-renewal"}, {"measurement": "effect on apelin-mediated increase in tumourspheres", "setting": "[2]", "value": "apelin was less potent at increasing tumourspheres and self-renewal"}]}, {"compound": "Cn1nnc2c(C(N)=O)ncn2c1=O", "note": "[TMZ, Temozolomide]", "values": [{"measurement": "viability, GSCs grown as adherent differentiated cells", "setting": "[3]", "value": "reduces the viability"}, {"measurement": "viability, LN229", "setting": "[4]", "value": "significantly reduced the viability"}, {"measurement": "concentrations needed for tumoursphere impairment comparable to MM54", "setting": "[5]", "value": "required much higher concentrations to achieve comparable results"}, {"measurement": "viability, U87", "setting": "[6]; TMZ", "value": "significantly reduced the viability"}, {"measurement": "viability, U87 grown as adherent differentiated cells", "setting": "[6]; TMZ 100 μM, serum-containing medium, 3 days", "value": "reduces the viability"}, {"measurement": "concentrations needed for ALDH impairment comparable to MM54", "setting": "[7]; GSC#1, TMZ 10–100 μM, Day 5", "value": "required much higher concentrations to achieve comparable results"}, {"measurement": "activity of the stem marker ALDH, TMZ alone", "setting": "[7]; TMZ alone", "value": "does not alter the activity of the stem marker ALDH"}, {"measurement": "potentiation of MM54 effect on ALDH activity", "setting": "[7]; TMZ with MM54 suboptimal dose <2 μM, MM54:TMZ 1:2.5, 1:5, 1:10", "value": "significantly potentiates the effects of MM54"}, {"measurement": "percentage of ALDH-positive cells, TMZ combined with suboptimal dose of MM54", "setting": "[7]; TMZ with suboptimal dose of MM54", "value": "profound alterations in the percentage of ALDH-positive cells"}]}, {"compound": "pyr-apelin-13", "values": [{"measurement": "number of tumourspheres", "setting": "[8]; n = 3", "value": "increased the number of tumourspheres compared to mitogen-free media"}]}, {"compound": "apelin-13", "values": [{"measurement": "number of tumourspheres", "setting": "[8]; n = 3", "value": "increased the number of tumourspheres compared to mitogen-free media"}, {"measurement": "potency at sustaining GSCs (tumourspheres)", "setting": "[8]; 1 μM, compared among apelin-13, pyr-apelin-13 and apelin-36", "value": "most potent at sustaining GSCs"}, {"measurement": "tumourspheres, increasing concentrations", "setting": "[8]; GSC#1, increasing apelin-13 concentrations in MF, n = 3", "value": "potent and sustained increase in tumourspheres from the lowest concentration"}, {"measurement": "stem properties of GSCs in APLN-depleted EC-CM", "setting": "[8]; GSC#1 in siAPLN EC-CM plus apelin 1 μM, tumoursphere and LDA", "value": "restored this effect"}, {"measurement": "ability of GSCs to expand as tumourspheres", "setting": "[8]; panel of 16 patient-derived GSCs, apelin-supplemented MF vs MF, n = 3", "value": "significantly increased the ability of GSCs to expand as tumourspheres"}, {"measurement": "proliferation (Ki67) of GSCs", "setting": "[9]", "value": "did not observe any obvious effect"}, {"measurement": "rescue of NESTIN and SOX2 expression and ability to form tumourspheres", "setting": "[10]", "value": "rescued by the addition of synthetic apelin"}, {"measurement": "frequency of colony-forming cells", "setting": "[11]; GSC#1, apelin 1 μM in MF vs MF, two weeks, n = 2", "value": "increase in the frequency of colony-forming cells"}, {"measurement": "frequency of stem cells", "setting": "[11]; GSCs #1, #2, #4, #9 and #12, apelin vs MF", "value": "increased the frequency of stem cells"}, {"measurement": "endothelial cell proliferation and vessel sprouting", "setting": "[12]", "value": "induces proliferation and vessel sprouting in endothelial cells"}]}]}
